Values of other authors as cited in paper PMC11711049 (Cancer Science, 2024).

Tests used:
[1] = test system: cholangiocarcinoma with an FGFR2 gene fusion or other rearrangement; conditions: cholangiocarcinoma patients; cited from earlier work
cholangiocarcinoma = conditions: first‐line, patients with cholangiocarcinoma; cited from earlier work

Row | Molecule | median OS [1] | median PFS [1] | response rate / ORR [1] | ORR (cholangiocarcinoma) | median OS (cholangiocarcinoma) | median PFS (cholangiocarcinoma)
1 | CCN1C(=O)N(c2c(F)c(OC)cc(OC)c2F)Cc2cnc3[nH]c(CN4CCOCC4)cc3c21 [pemigatinib, Pemigatinib] | 21.1 months | 6.9 months | 35.5% | – | – | –
2 | gemcitabine and cisplatin | – | – | – | 26% | 11.7 months | 8.0 months
